Source: ChEMBL document CHEMBL1137952, “Fertilin beta peptidic liposomes inhibit fertilization by steric blockage” (Bioorg Med Chem Lett, 2004)
Activity calls are given as the source filed them. The rule behind the calls is not given here. Non-standard residues stand in square brackets, D forms with d. Residues, ends and D or L forms follow the SMILES beside them. ξ: configuration not given here. *: point of attachment. Myristoyl = CCCCCCCCCCCCCC(=O)*; Dap = NC[C@H](N)C(=O)O; ξDap = NCC(N)C(=O)O; GABA = NCCCC(=O)O

Key:
Liposome [1] = test: Inhibition of fertilization by POPC (40 or 400 nm), measured by average number of sperm fused / egg (FI); No inhibition uM; format: functional, Mus musculus
Liposome [2] = test: Inhibition of fertilization by POPC (40 or 400 nm), measured by number of zona-free eggs fertilized (FR); No inhibition; format: functional, subcellular, Mus musculus
Liposome [3] = test: Inhibition of fertilization by POPC (40 or 400 nm), measured by number of zona-free eggs fertilized (FR); No inhibition uM; format: functional, subcellular, Mus musculus
Liposome [4] = test: Maximal inhibition of fertilization by POPC (40 or 400 nm); No inhibition; format: functional; conditions: Mus musculus
Liposome [5] = test: Inhibition of fertilization by fertilin beta peptide, measured by average number of sperm fused / egg (FI); format: functional, Mus musculus
Liposome [6] = test: Inhibition of fertilization by fertilin beta peptide, measured by number of zona-free eggs fertilized (FR); format: functional, subcellular, Mus musculus
Liposome [7] = test: Maximal inhibition of fertilization by fertilin beta peptide; format: functional, subcellular; conditions: Mus musculus
Liposome [8] = test: Inhibition of fertilization by fertilin beta peptide (0.013 mol%) with 40 nm liposome, measured by number of zona-free eggs fertilized (FR); No inhibition up to 125 nm peptide; format: functional, Mus musculus
Liposome [9] = test: Inhibition of fertilization by fertilin beta peptide (0.1 mol%) with 40 nm liposome, measured by average number of sperm fused per egg (FI); format: functional, subcellular, Mus musculus
Liposome [10] = test: Inhibition of fertilization by fertilin beta peptide (0.1 mol%) with 40 nm liposome, measured by number of zona-free eggs fertilized (FR); format: functional, subcellular, Mus musculus
Liposome [11] = test: Inhibition of fertilization by fertilin beta peptide (0.5 mol%) with 40 nm liposome, measured by average number of sperm fused per egg (FI); format: functional, subcellular, Mus musculus
Liposome [12] = test: Inhibition of fertilization by fertilin beta peptide (0.5 mol%) with 40 nm liposome, measured by number of zona-free eggs fertilized (FR); format: functional, subcellular, Mus musculus
Liposome [13] = test: Inhibition of fertilization by fertilin beta peptide (0.5 mol%) with 400 nm liposome, measured by average number of sperm fused per egg (FI); format: functional, subcellular, Mus musculus
Liposome [14] = test: Inhibition of fertilization by fertilin beta peptide (0.013 mol%) with 40 nm liposome, measured by average number of sperm fused per egg (FI); No inhibition up to 125 nm peptide; format: functional, Mus musculus
Liposome [15] = test: Inhibition of fertilization by fertilin beta peptide (0.013 mol%) with 40 nm liposome, measured by number of zona-free eggs fertilized (FR); No inhibition; format: functional, subcellular, Mus musculus
Liposome [16] = test: Inhibition of fertilization by fertilin beta peptide (0.5 mol%) with 400 nm liposome, measured by number of zona-free eggs fertilized (FR); format: functional, subcellular, Mus musculus
Liposome [17] = test: Inhibition of fertilization by fertilin beta peptide (1 mol%) with 40 nm liposome, measured by average number of sperm fused per egg (FI); format: functional, subcellular, Mus musculus
Liposome [18] = test: Inhibition of fertilization by fertilin beta peptide (1 mol%) with 40 nm liposome, measured by number of zona-free eggs fertilized (FR); format: functional, subcellular, Mus musculus
Liposome [19] = test: Inhibition of fertilization by fertilin beta peptide (5 mol%) with 40 nm liposome, measured by average number of sperm fused per egg (FI); format: functional, subcellular, Mus musculus
Liposome [20] = test: Inhibition of fertilization by fertilin beta peptide (5 mol%) with 40 nm liposome, measured by number of zona-free eggs fertilized (FR); format: functional, subcellular, Mus musculus
Liposome [21] = test: Maximal inhibition of fertilization by fertilin beta peptide (0.5 mol%) with 40 nm liposome; format: functional, subcellular; conditions: Mus musculus
Liposome [22] = test: Maximal inhibition of fertilization by fertilin beta peptide (1 mol%) with 40 nm liposome; format: functional, subcellular; conditions: Mus musculus
Liposome [23] = test: Inhibition of fertilization by fertilin beta peptide (1 mol%) with 40 nm liposome, measured by average number of sperm fused /egg (FI); No inhibition uM peptide; format: functional, subcellular, Mus musculus
Liposome [24] = test: Inhibition of fertilization by fertilin beta peptide (1 mol%) with 40 nm liposome, measured by number of zona-free eggs fertilized (FR); No inhibition; format: functional, subcellular, Mus musculus
Liposome [25] = test: Inhibition of fertilization by fertilin beta peptide (1 mol%) with 40 nm liposome, measured by number of zona-free eggs fertilized (FR); No inhibition uM peptide; format: functional, subcellular, Mus musculus
Liposome [26] = test: Maximal inhibition of fertilization by fertilin beta peptide (1 mol%) with 40 nm liposome; No inhibition; format: functional, subcellular; conditions: Mus musculus

CCCCCCCC/C=C\CCCCCCCC(=O)OC(COC(=O)CCCCCCCCCCCCCCC)COP(=O)([O-])OCC[N+](C)(C)C (stereo not given)
IC50 (Liposome [1]): Not Active | IC50 (Liposome [2]): Not Active | IC50 (Liposome [3]): Not Active | Max inhibition (Liposome [4]): inactive

CC(=O)NC[C@H](NC(C)=O)C(=O)NCCCC(=O)N[C@@H](C)C(=O)N[C@@H](CCC(N)=O)C(=O)N[C@@H](CC(=O)O)C(=O)N[C@@H](CCC(=O)O)C(=O)N[C@@H](CS)C(=O)N[C@@H](CC(=O)O)C(=O)N[C@H](C(=O)N[C@H](C(=O)N[C@@H](CCC(=O)O)C(=O)N[C@@H](Cc1ccc(O)cc1)C(N)=O)[C@@H](C)O)C(C)C (Ac-[Dap](Ac)[GABA]AQDECDVTEY-NH2)
IC50 (Liposome [5]): 524 µM | IC50 (Liposome [6]): 500 µM | Max inhibition (Liposome [7]): 71%

CCCCCCCCCCCCCC(=O)NCC(NC(=O)CCCCCCCCCCCCC)C(=O)NCCCC(=O)N[C@@H](C)C(=O)N[C@@H](CCC(N)=O)C(=O)N[C@@H](CC(=O)O)C(=O)N[C@@H](CCC(=O)O)C(=O)N[C@@H](CS)C(=O)N[C@@H](CC(=O)O)C(=O)N[C@H](C(=O)N[C@H](C(=O)N[C@@H](CCC(=O)O)C(=O)N[C@@H](Cc1ccc(O)cc1)C(N)=O)[C@@H](C)O)C(C)C (stereo not given in full) (Myristoyl-[ξDap](Myristoyl)[GABA]AQDECDVTEY-NH2)
IC50 (Liposome [8]): Not Active | IC50 (Liposome [9]): 0.5 µM | IC50 (Liposome [10]): 0.5 µM | IC50 (Liposome [11]): 0.5 µM | IC50 (Liposome [12]): 2800000000000 liposomes ml-1 | IC50 (Liposome [12]; read-out: IC50): 0.34 µM | IC50 (Liposome [13]): 0.92 µM | IC50 (Liposome [14]): Not Active | IC50 (Liposome [15]): Not Active | IC50 (Liposome [16]): 59000000000 liposomes ml-1 | IC50 (Liposome [16]; read-out: IC50): 0.75 µM | IC50 (Liposome [17]): 2.4 µM | IC50 (Liposome [18]): 11000000000000 liposomes ml-1 | IC50 (Liposome [18]; read-out: IC50): 2.5 µM | IC50 (Liposome [19]): 5 µM | IC50 (Liposome [20]): 4200000000000 liposomes ml-1 | IC50 (Liposome [20]; read-out: IC50): 5 µM | Max inhibition (Liposome [21]): 93% | Max inhibition (Liposome [22]): 97%

CCCCCCCCCCCCCC(=O)NCC(NC(=O)CCCCCCCCCCCCC)C(=O)NCCCC(=O)N[C@@H](CC(=O)O)C(=O)N[C@@H](Cc1ccc(O)cc1)C(=O)N[C@@H](CCC(=O)O)C(=O)N[C@H](C(=O)N[C@@H](CCC(=O)O)C(=O)N[C@@H](CCC(N)=O)C(=O)N[C@@H](C)C(=O)N[C@@H](CS)C(=O)N[C@H](C(=O)N[C@@H](CC(N)=O)C(=O)O)[C@@H](C)O)C(C)C (stereo not given in full) (Myristoyl-[ξDap](Myristoyl)[GABA]DYEVEQACTN-OH)
IC50 (Liposome [23]): Not Active | IC50 (Liposome [24]): Not Active | IC50 (Liposome [25]): Not Active | Max inhibition (Liposome [26]): inactive
